Laboratory results taken from US9783513B2, “STAT3 inhibitors and their anticancer use” (Ohio State Innovation Foundation, priority 2012, dated 2017).
Read-outs that look alike come from different tables or passages of the source.

Columns and labels:
[1] = system: human sarcoma cell lines (RD2, RH30, U2OS); test: Cell viability (MTT) assay, different cell lines; assay type: cell-based; details: in different cell lines
Description: (§1) Human sarcoma cell lines (RD2, RH30, U2OS) were seeded in 96-well plates at a density of 3,000 cells per well. The cells were incubated at 37° C. for a period of 24 hours. Different concentrations of LY-5 (0.1-10 μM), LY-3 (0.1-20 μM), and LLL12 (0.1-10 μM) prepared as a 20 mM stock solution in sterile DMSO were added in triplicate to the plates in the presence of 10% FBS. 3-(4,5-Dimethylthiazolyl)-2, 5-diphenyltetrazoliumbromide (MTT) was added to evaluate cell viability. The absorbance was read at 595 nm. IC50 values were determined using SigmaPlot 9.0 Software (Systat Software, Inc., San Jose, Calif.).
(§2) Alternatively, cells were seeded in 96-well plates in triplicate at a density of 3,000 cells per well and given 24 hours to adhere. Cells were then treated with varying concentrations of the inhibitors in the presence of 10% FBS. The cells were incubated for 72 hours at 37° C. 25 μl of MTT dye (Sigma, #M5655) was added to each sample and incubated for 3.5 hours. After this, 100 μl of N,N-dimethylformamide (Sigma, #D4551) solubilization solution was added to each well. The absorbance at 450 nm was read the following day. Half-Maximal inhibitory concentrations (IC50) were determined using Sigma Plot 9.0 software (Systat Software Inc.).

IL-6 secretion = test: IL-6 secretion; assay type: cell-based, human; details: FIG. 57(C)
[2] = system: human sarcoma cell line RD2; test: Cell viability (MTT) assay, RD2; assay type: cell-based
Description: as §1, §2
Table 7 below lists specific compounds as well as experimentally determined STAT3 activity in a cell-based assay. The STAT3 activity was determined using the cell viability assays with human sarcoma cell lines (RD2, RH30, U2OS) as described above. The compound reference numbers (“Ref. No.”) in Table 7 correspond to the compound numbers used in Table 3.

HUVEC = HUVEC migration assays (wound-healing, Boyden chamber); assay type: cell-based, human; details: 300 nM, VEGF 10 ng/ml
Description: Endothelial cell (HUVEC) migration was monitored using the wound-healing assay described by Thaloor et al. (Cell Growth Differ. (1998) 9(4):305-12). Briefly, 3×10^4 cells/well were seeded in 24-well plates using M200 medium with LSGS. After cells had attached and formed a monolayer on plate completely, we scraped the cells with same width using yellow tip. After scraped, the cells were washed with PBS and incubated with the medium containing VEGF (10 ng/ml)) with or without LY5 (300 nM). Width was photographed at different time intervals (0 and 24 hours) with a magnification of 40× with a microscopic camera system (Leitz Diavert microscope, Leica, Bensheim; AxioCam, Carl Zeiss, Gottingen, Germany).
HUVECs were grown in M200 containing LSGS until 40-50% confluent. Cells were washed with PBS, trypsinized for 5-10 min, collected with 0.2% FBS and centrifuged at 300 g for 5 min. Cells were then resuspended with 0.2% FBS and counted using a Beckman Coulter Z2. A volume of 400 μl of this mix containing 5×10^5 cells was placed on to Boyden Chambers (8 μm pore) inserts with or without LY5 (300 nM) in 24 well plates with 500 μl of M200. VEGF (R and D Systems) in 1% BSA was added to a final concentration of 10 ng/ml in the lower chambers as a chemo-attractant. Cells were pretreated with antibody for 30 min in suspension, then placed in the chambers and incubated at 37° C. 5% C02 for 18-24 hrs. The Boyden chamber porous membranes were then blotted and fixed with 3.7% formaldehyde containing 0.05% crystal violet for 30 min. After repeated washes with distilled water the membranes were air-dried. […] The remainder of the cells on top of the membrane and within the Boyden chamber, were separately incubated in 80% methanol, shaken at 500 rpm for 30 min, and the extracted dye measured at 570 nm. Migration was quantified using the ratio of the migrated cells over the total cells (migrated plus remaining cells) to determine the fraction of migrating cells in each individual experiment. […]

[3] = system: IGF2, IGF-1 or LIF induced STAT3 phosphorylation; test: Western blot, IGF and LIF induced STAT3 phosphorylation; assay type: cell-based, human
[4] = system: human sarcoma cell line U2OS; test: Cell viability (MTT) assay, U2OS; assay type: cell-based; details: Homo sapiens
Description: as §1, §2
Table 6 below lists specific compounds as well as experimentally determined STAT3 activity in a cell-based assay. The STAT3 activity was determined using the cell viability assays with human sarcoma cell line U2OS as described above. The compounds in Table 6 were synthesized with methods identical or analogous to those described herein. The compound reference numbers (“Ref. No.”) in Table 6 correspond to the compound numbers used in Table 3.

cleaved caspase-3 = test: Western blot, cleaved caspase-3 (apoptosis); assay type: cell-based, human
acetyl-STAT3 = test: Western blot, acetyl-STAT3; assay type: cell-based, human; details: 2 h

## NS(=O)(=O)c1cccc2c1C(=O)C=C(Nc1cccnc1)C2=O [LY-5, 5,8-dioxo-6-(pyridin-3-ylamino)-5,8-dihydronaphthalene-1-sulfonamide]
[1]
  IC50: 500 to 1400 nM
IL-6 secretion
  IL-6 secretion: can decrease
[2]; Table 7, read-out: IC50 RD2
  IC50: 1390 nM
[2]; Table 8, read-out: IC50 values vs. cell lines, RD2
  IC50: 1390 nM
HUVEC
  VEGF induced HUVEC cell migration (wound width): decreased cell migration
  percentage of migration (migrated cells over total cells): decreased percentage of migration
HUVEC; listed as LY5
  VEGF induced HUVEC cell migration (wound width): significantly blocked
[3]; DAOY, 0-5 μM, 2 h
  IGF-1 induced STAT3 phosphorylation at Y705: inhibits
  LIF induced STAT3 phosphorylation at Y705: inhibits
[3]; SJSA, 0-2.5 μM, 4 h
  IGF2 induced STAT3 phosphorylation: inhibits
[4]; Table 2, cell line not given, read-out: IC50
  IC50: 500 nM
[4]; Table 7, read-out: IC50 U2OS
  IC50: 520 nM
[4]; Table 8, read-out: IC50 values vs. cell lines, U2OS
  IC50: 520 nM
Cleaved caspase-3; EW8, 0.5-1.0 μM, 8 h
  apoptosis (cleaved caspase 3): induction of apoptosis
Cleaved caspase-3; HCSMC, HH and HSMM, 0-1 μM, 2 h
  apoptosis (cleaved caspase-3) in normal cells: but not in HCSMC, HH and HSMM cells
Cleaved caspase-3; RD2 and EW8, 0-1 μM, 2 h
  apoptosis (cleaved caspase-3): induces apoptosis
Cleaved caspase-3; UW288-1 and UW426, 0-1 μM, 2 h
  apoptosis (cleaved caspase-3): apoptosis
acetyl-STAT3; RD2, 0-2.5 μM
  acetyl-STAT3: decrease in STAT3 phosphorylation and acetyl-STAT3
acetyl-STAT3; UW288-1 and UW426, 0-5 μM
  acetyl-STAT3: inhibits
